Results on four sequences are retold here after patent US20070128217A1 (priority 2003, published 2007).

The subject of test [1] is rabbit serum obtained by immunizing a rabbit with the SARS-CoV strain Frankfurt 1. Type of test: binding. More on the design: Binding of a rabbit serum to linear peptides / Binding of a rabbit serum to looped peptides / Rabbit serum linear peptides / Rabbit serum looped peptides / Binding of a rabbit serum to linear peptides of protein N of SARS-CoV Urbani (Rabbit serum linear peptides) / Binding of a rabbit serum to looped/cyclic peptides of protein N of SARS-CoV Urbani (Rabbit serum looped peptides): unit not given here.

For test [2], the system named is antibodies in sera from SARS patients (sera 1a, 1b, 2, 6, 37, 62, London, SARS-yellow, SARS-green). Type of test: binding, human. Details: Binding of serum 6 to linear peptides of protein X1 of SARS-CoV Urbani / Binding of serum 37 to linear peptides of protein X1 of SARS-CoV Urbani / Binding of serum 6 to looped/cyclic peptide (PEPSCAN-ELISA) / Binding of serum 37 to looped/cyclic peptide (PEPSCAN-ELISA) / Binding of serum 37 to looped/cyclic peptides of protein X1 of SARS-CoV Urbani / Binding of serum 6 to linear peptides of protein X2 / Binding of serum 37 to linear peptides of protein X2 / Binding of serum 37 to looped/cyclic peptides of protein X2 of SARS-CoV Urbani / Binding of serum 6 to linear peptides of protein M of SARS-CoV Urbani / Binding of serum 37 to linear peptides of protein M of SARS-CoV Urbani / Binding of serum 6 to looped/cyclic peptides of protein M of SARS-CoV Urbani / Binding of serum 37 to looped/cyclic peptides of protein M of SARS-CoV Urbani / Binding of serum 6 to linear peptides of protein X3 of SARS-CoV Urbani / Binding of serum 37 to linear peptides of protein X3 of SARS-CoV Urbani / Binding of serum 37 to looped/cyclic peptides of protein X3 of SARS-CoV Urbani / Binding of serum 6 to linear peptides of protein X4 of SARS-CoV Urbani / Binding of serum 37 to linear peptides of protein X4 of SARS-CoV Urbani / Binding of serum 37 to looped/cyclic peptides of protein X4 of SARS-CoV Urbani / Binding of serum 6 to linear peptides of protein X5 of SARS-CoV Urbani / Binding of serum 37 to linear peptides of protein X5 of SARS-CoV Urbani / Binding of serum 37 to looped/cyclic peptides of protein X5 of SARS-CoV Urbani / Binding of serum 6 to linear peptides of protein N of SARS-CoV Urbani / Binding of serum 37 to linear peptides of protein N of SARS-CoV Urbani / Binding of serum 6 to linear peptide (PEPSCAN-ELISA) / Binding of serum 1a to looped/cyclic peptides of protein N of SARS-CoV Urbani / Binding of serum 1b to looped/cyclic peptides of protein N of SARS-CoV Urbani / Binding of serum 2 to looped/cyclic peptides of protein N of SARS-CoV Urbani / Binding of serum 6 to looped/cyclic peptides of protein N of SARS-CoV Urbani / Binding of serum 37 to looped/cyclic peptides of protein N of SARS-CoV Urbani / Binding of serum 62 to looped/cyclic peptides of protein N of SARS-CoV Urbani / Binding of serum London to looped/cyclic peptides of protein N of SARS-CoV Urbani / Binding of serum SARS-green to looped/cyclic peptides of protein N of SARS-CoV Urbani: unit not given here.

The subject of test [3] is control sera (pooled serum of ten healthy LUMC hospital workers; commercial negative donor pooled serum from the Dutch bloodbank). Type of test: binding, human. Details: Binding of Control serum LUMC to linear peptides / Binding of Control serum Blood-bank to linear peptides / Binding of Control serum LUMC to looped peptides / Binding of Control Serum Blood-Bank to Looped peptides / Binding of Control serum LUMC to linear peptides of the protein M of SARS-CoV Urbani / Binding of Control serum Blood-bank to linear peptides of the protein M of SARS-CoV Urbani / Binding of Control serum LUMC to looped peptides of the protein M of SARS-CoV Urbani / Binding of Control Serum Blood-Bank to Looped peptides of the protein M of SARS-CoV Urbani: unit not given here.

For MWSFNPETNILLNVP, in test [1], the “Rabbit serum linear peptides” value is reported as 0.4 and the “Rabbit serum looped peptides” value came out at 0.2. Also, in test [2], the “Binding of serum 1a to linear peptides of protein M of SARS-CoV Urbani” value is given as 0.8, the “Binding of serum 1a to looped/cyclic peptides of protein M of SARS-CoV Urbani” value is 0.8, the “Binding of serum 1b to linear peptides of protein M of SARS-CoV Urbani” value is 0.5 and the “Binding of serum 1b to looped/cyclic peptides of protein M of SARS-CoV Urbani” value is listed as 0.7. Besides, in test [2], the “Binding of serum 2 to linear peptides of protein M of SARS-CoV Urbani” value is 0.8, the “Binding of serum 2 to looped/cyclic peptides of protein M of SARS-CoV Urbani” value is 0.9, the “Binding of serum 6 to linear peptides of protein M of SARS-CoV Urbani” value was determined as 0.4 and the “Binding of serum 6 to looped/cyclic peptides of protein M of SARS-CoV Urbani” value is 0.5. Besides, in test [2], the “Binding of serum 37 to linear peptides of protein M of SARS-CoV Urbani” value came out at 0.9, the “Binding of serum 37 to looped/cyclic peptides of protein M of SARS-CoV Urbani” value was found to be 0.8, the “Binding of serum 62 to linear peptides of protein M of SARS-CoV Urbani” value worked out at 0.9 and the “Binding of serum 62 to looped/cyclic peptides of protein M of SARS-CoV Urbani” value is reported as 0.8. In addition, in test [2], the “Binding of serum London to linear peptides of protein M of SARS-CoV Urbani” value is 0.3, the “Binding of serum London to looped/cyclic peptides of protein M of SARS-CoV Urbani” value is listed as 0.2, the “Binding of serum SARS-green to linear peptides of protein M of SARS-CoV Urbani” value is on record as 0.3 and the “Binding of serum SARS-green to looped/cyclic peptides of protein M of SARS-CoV Urbani” value was 0.3. Also, in test [2], the “Binding of serum SARS-yellow to linear peptides of protein M of SARS-CoV Urbani” value came out at 0.1 and the “Binding of serum SARS-yellow to looped/cyclic peptides of protein M of SARS-CoV Urbani” value is reported as 0.6. In test [3], the “Binding of Control Serum Blood-Bank to Looped peptides of the protein M of SARS-CoV Urbani” value amounted to 0.8, the “Binding of Control serum Blood-bank to linear peptides of the protein M of SARS-CoV Urbani” value came to 0.9, the “Binding of Control serum LUMC to linear peptides of the protein M of SARS-CoV Urbani” value is recorded as 0.5 and the “Binding of Control serum LUMC to looped peptides of the protein M of SARS-CoV Urbani” value is reported as 0.8.

Turning to NATFFIFNKLVKDPP, in test [1], the “Binding of a rabbit serum to linear peptides” value worked out at 0.1 and the “Binding of a rabbit serum to looped peptides” value is recorded as 0.3. In addition, in test [2], the “Binding of serum 1a to linear peptides of protein X1 of SARS-CoV Urbani” value is recorded as 0.6, the “Binding of serum 1a to looped/cyclic peptides of protein X1 of SARS-CoV Urbani” value is 0.5, the “Binding of serum 1b to linear peptides of protein X1 of SARS-CoV Urbani” value came to 0.5 and the “Binding of serum 1b to looped/cyclic peptides of protein X1 of SARS-CoV Urbani” value is reported as 0.3. In addition, in test [2], the “Binding of serum 2 to linear peptides of protein X1 of SARS-CoV Urbani” value stood at 0.4, the “Binding of serum 2 to looped/cyclic peptides of protein X1 of SARS-CoV Urbani” value was found to be 0.3, the “Binding of serum 6 to linear peptides of protein X1 of SARS-CoV Urbani” value is 0.4 and the “Binding of serum 6 to looped/cyclic peptides of protein X1 of SARS-CoV Urbani” value was 0.4. In test [2], the “Binding of serum 37 to linear peptides of protein X1 of SARS-CoV Urbani” value worked out at 0.5, the “Binding of serum 37 to looped/cyclic peptides of protein X1 of SARS-CoV Urbani” value is listed as 0.4, the “Binding of serum 62 to linear peptides of protein X1 of SARS-CoV Urbani” value was determined as 0.4 and the “Binding of serum 62 to looped/cyclic peptides of protein X1 of SARS-CoV Urbani” value was 0.4. In test [2], the “Binding of serum London to linear peptides of protein X1 of SARS-CoV Urbani” value is 0.2, the “Binding of serum London to looped/cyclic peptides of protein X1 of SARS-CoV Urbani” value came to 0.2, the “Binding of serum SARS-green to linear peptides of protein X1 of SARS-CoV Urbani” value turned out to be 0.2 and the “Binding of serum SARS-green to looped/cyclic peptides of protein X1 of SARS-CoV Urbani” value is 0.2. Besides, in test [2], the “Binding of serum SARS-yellow to linear peptides of protein X1 of SARS-CoV Urbani” value is on record as 0.2 and the “Binding of serum SARS-yellow to looped/cyclic peptides of protein X1 of SARS-CoV Urbani” value is 0.0. In test [3], the “Binding of Control Serum Blood-Bank to Looped peptides” value is on record as 0.3, the “Binding of Control serum Blood-bank to linear peptides” value was 0.4, the “Binding of Control serum LUMC to linear peptides” value was 0.4 and the “Binding of Control serum LUMC to looped peptides” value is recorded as 0.4.

For NILLNVPLRGTIVTR, in test [1], the “Rabbit serum linear peptides” value was 0.5 and the “Rabbit serum looped peptides” value is 0.4. In test [2], the “Binding of serum 1a to linear peptides of protein M of SARS-CoV Urbani” value is given as 0.7, the “Binding of serum 1b to linear peptides of protein M of SARS-CoV Urbani” value was found to be 0.5, the “Binding of serum 2 to linear peptides of protein M of SARS-CoV Urbani” value worked out at 0.8 and the “Binding of serum 6 to linear peptides of protein M of SARS-CoV Urbani” value worked out at 0.4. In addition, in test [2], the “Binding of serum 37 to linear peptides of protein M of SARS-CoV Urbani” value was determined as 0.6, the “Binding of serum 62 to linear peptides of protein M of SARS-CoV Urbani” value is listed as 0.7, the “Binding of serum London to linear peptides of protein M of SARS-CoV Urbani” value was 0.4 and the “Binding of serum SARS-green to linear peptides of protein M of SARS-CoV Urbani” value was 0.3. Also, in test [2], the “Binding of serum SARS-yellow to linear peptides of protein M of SARS-CoV Urbani” value came out at 0.1; the “Recognition of the peptide by sera of SARS-CoV infected individuals, and form (linear, looped/cyclic) in which it is recognized” value is “recognized in looped/cyclic form”. Besides, in test [3], the “Binding of Control Serum Blood-Bank to Looped peptides of the protein M of SARS-CoV Urbani” value was found to be 0.8, the “Binding of Control serum Blood-bank to linear peptides of the protein M of SARS-CoV Urbani” value was 0.8, the “Binding of Control serum LUMC to linear peptides of the protein M of SARS-CoV Urbani” value was determined as 0.3 and the “Binding of Control serum LUMC to looped peptides of the protein M of SARS-CoV Urbani” value came to 0.7.

With NLLLLFVTIYSHLLL, in test [1], the “Binding of a rabbit serum to linear peptides” value stood at 0.2 and the “Binding of a rabbit serum to looped peptides” value is 0.6. Further, in test [2], the “Binding of serum 1a to linear peptides of protein X1 of SARS-CoV Urbani” value is given as 0.7, the “Binding of serum 1a to looped/cyclic peptide (PEPSCAN-ELISA)” value was determined as 0.5, the “Binding of serum 1b to linear peptides of protein X1 of SARS-CoV Urbani” value is on record as 0.5 and the “Binding of serum 1b to looped/cyclic peptide (PEPSCAN-ELISA)” value is given as 0.4. In addition, in test [2], the “Binding of serum 2 to linear peptides of protein X1 of SARS-CoV Urbani” value is 0.5, the “Binding of serum 2 to looped/cyclic peptide (PEPSCAN-ELISA)” value was found to be 0.4, the “Binding of serum 6 to linear peptides of protein X1 of SARS-CoV Urbani” value was 0.4 and the “Binding of serum 6 to looped/cyclic peptide (PEPSCAN-ELISA)” value is reported as 0.2. In test [2], the “Binding of serum 37 to linear peptides of protein X1 of SARS-CoV Urbani” value is on record as 0.5, the “Binding of serum 37 to looped/cyclic peptide (PEPSCAN-ELISA)” value is 0.4, the “Binding of serum 62 to linear peptides of protein X1 of SARS-CoV Urbani” value is reported as 0.4 and the “Binding of serum 62 to looped/cyclic peptide (PEPSCAN-ELISA)” value was determined as 0.5. Moreover, in test [2], the “Binding of serum London to linear peptides of protein X1 of SARS-CoV Urbani” value was 0.2, the “Binding of serum London to looped/cyclic peptide (PEPSCAN-ELISA)” value is listed as 0.2, the “Binding of serum SARS-green to linear peptides of protein X1 of SARS-CoV Urbani” value was determined as 0.1 and the “Binding of serum SARS-green to looped/cyclic peptide (PEPSCAN-ELISA)” value is 0.2. In test [2], the “Binding of serum SARS-yellow to linear peptides of protein X1 of SARS-CoV Urbani” value is 0.3 and the “Binding of serum SARS-yellow to looped/cyclic peptide (PEPSCAN-ELISA)” value is 0.4. Moreover, in test [3], the “Binding of Control Serum Blood-Bank to Looped peptides” value was 0.5, the “Binding of Control serum Blood-bank to linear peptides” value stood at 0.4, the “Binding of Control serum LUMC to linear peptides” value is recorded as 0.5 and the “Binding of Control serum LUMC to looped peptides” value is reported as 0.6.
